# Assay results reported in patent US6190849A, “Photographic element containing ballasted tetrazole derivative and inhibitor releasing coupler” (priority 1999, dated 2001).
# How the values were obtained:
# [1] = Interimage in multilayer format (density change of receiver record); settings: for R→G density difference (interimage) / B→G density difference (interimage): CDIR-1 in red
# Description: Multilayer Film Example ML-1:
# Layer 1 (Antihalation layer): black collodial silver sol at 0.135; ILS-1 at 0.162,
# Layer 2 (Slow cyan layer): a blend of two red sensitized (both with a mixture of RSD-1 and RSD-2) tabular silver iodobromide emulsions: (i) 0.66×0.12, 4.1 mole % I at 0.302 (ii) 0.55×0.08, 1.5 mole % I at 0.464; cyan dye-forming coupler C-1 at 0.535; DIR coupler CDIR-1 at 0.027; bleach accelerator releasing coupler B-1 at 0.057; masking coupler MC-1 at 0.032; and gelatin at 1.68.
# Layer 3 (Mid cyan layer): a blend of two red sensitized (same as above) tabular silver iodobromide emulsions: (i) […], 4.1 mole % I at 0.194 (ii) 1.07×0.11, 4.1 mole % I at 0.238; cyan coupler C-1 at 0.171; CDIR-1 at 0.019; MC-1 at 0.032; B-1 at 0.008; and gelatin at 1.08.
# Layer 4 (Fast cyan layer): a red sensitized (same as above) tabular silver iodobromide emulsion (1.33×0.12, 4.1 mole % I) at 0.594; C-1 at 0.184; CDIR-1 at 0.027; MC-1 at 0.022; and gelatin at 0.918.
# Layer 5 (Interlayer): ILS-1 at 0.086 and gelatin at 0.540.
# Layer 6 (Slow magenta layer): a blend of two green sensitized (both with a mixture of GSD-1 and GSD-2) silver iodobromide emulsions: (i) 0.81×0.12, 2.6 mole % iodide at 0.346 and (ii) 0.55×0.08, 1.5 mole % iodide at 0.130; magenta dye forming coupler M-1 at 0.270; MC-2 at 0.086; IDIR-5 at 0.011; and gelatin at 1.08.
# Layer 7 (Mid magenta layer): a blend of two green sensitized (same as above) tabular silver iodobromide emulsions (i) 1.22×0.11, 4.1 mole % I at 0.248 and (ii) 1.07×0.11, 4.1 mole % I at 0.248; M-1 at 0.124; MC-2 at 0.119; IDIR-5 at 0.043; OxDS-2 at 0.016; and gelatin at 1.22.
# Layer 8 (Fast magenta layer): a green sensitized tabular silver iodobromide (1.33×0.12, 4.1 mole % I) emulsion at 0.486; M-1 at 0.076; MC-2 at 0.054; B-1 at 0.003; IDIR-5 at 0.015; OxDS-2 at 0.009; and gelatin at 1.02.
# Layer 9 (Yellow filter layer): yellow filter dye FD-1 at 0.054; ILS-1 at 0.086; and gelatin at 0.648.
# Layer 10 (Slow yellow layer): a blend of three blue sensitized (all with a mixture of BSD-1 and BSD-2) tabular silver iodobromide emulsions (i) 0.55×0.08, 1.5 mole % I at 0.270 (ii) […], 1.5 mole % I at 0.248 and (iii) 1.25×0.14, 4.1 mole % I at 0.400; yellow dye forming coupler Y-2 at 1.08; IDIR-6 at 0.076; CDIR-1 at 0.032; B-1 at 0.022; and gelatin at 1.879.
# Layer 11 (Fast yellow layer): a blend of two blue sensitized (both with a mixture of BSD-1 and BSD-2) tabular silver iodobromide emulsions (i) 1.25×0.14, 4.1 mole % I at 0.108 (ii) 2.67×0.13, 4.1 mole % I at 0.378; Y-2 at 0.238; IDIR-6 at 0.076; B-1 at 0.005; and gelatin at 0.810.
# Layer 12 (Protective overcoat and UV filter layer): silver bromide Lippman emulsion at 0.216; UV-1 at a total of 0.108; gelatin at 1.242 and bis(vinylsulfonyl)methane hardener at 1.75% of total gelatin weight.
# Surfactants, coating aids, emulsion addenda, sequestrants, thickeners, lubricants, matte and tinting dyes were added to the appropriate layers as is common in the art. […]
# These multilayer coatings were given a stepped exposure in one color record but only flashed (non-imagewise exposure) in the other two records and processed as described for the bilayer experiments. To monitor interimage, a step nearest to density of 1.5 in the stepped color record (the causer) was chosen, and the difference in density of the other color records (the receivers) at that step and at the no exposure step of the causer was determined. […]
# [2] = Interimage in bilayer format: IDIR-2 in blue layer, IEM in green layer; settings: for Cg /Cb+g (interimage): IEM or CIEM in green layer at 7.2×10^-3 mmol/m^2, higher ratio = more interimage, no-IEM check; for Relative Speed (green layer): IEM or CIEM in green layer, speed point +0.15 density above Dmin, normalized to check
# Description: (§1) Bilayer photographic elements were prepared by coating the following layers on a cellulose triacetate film support (coverages are in g/m^2). Unless otherwise noted, all comparative and inventive compounds were dispersed in twice their own weight of N,N-dibutyllauramide: […] Layer 3 (Interlayer): gelatin at 0.64, ILS-1 at 0.11 and FD-1 at 0.11. […] Layer 5 (Overcoat): gelatin at 2.79 and 0.02 bis-vinylsulfonemethylether. […] Contrast of the elements was determined using the maximum slope between any two density points. In this test, the ratio of the contrast of the green only exposure to the contrast of the green of a blue and green exposure (Cg /Cb+g) is a measure of the interimage. A higher ratio means more inhibition originating from the blue and affecting the green record. Relative speed of the green layer was determined by measuring the speed point +0.15 density units above Dmin and normalizing to the check position.
# [3] = Interimage in bilayer format: IDIR-6 in blue layer, IEM in green layer; settings: for Cg /Cb+g (interimage): IEM or CIEM in green layer at 7.2×10^-3 mmol/m^2; for Relative Speed (green layer): IEM or CIEM in green layer, normalized to check
# Description: as §1
# [4] = Interimage in bilayer format: IDIR-1 in green layer, IEM in blue layer
# Description: Samples of each element were given a stepped exposure of either green light only or blue and green light combined and processed in the KODAK FLEXICOLOR™ (C4 1) process as described in British Journal of Photography Annual, 1988, pp196-198. Contrast of the elements was determined using the maximum slope between any two density points. […] A higher ratio means more inhibition originating from the blue and affecting the green record. Relative speed of the green layer was determined by measuring the speed point +0.15 density units above Dmin and normalizing to the check position.
# Additional bilayer elements were prepared in a manner similar to above by coating the following layers:
# Layer 1 (Antihalation Layer): black colloidial elemental silver at 0.34 and gelatin at 2.41.
# Layer 2 (Causer Layer): gelatin at 2.79, IDIR-1 at 0.054, coupler M-1 (dispersed as described previously) added at 0.045, and 0.81 green sensitized AgIBr tabular emulsion.
# Layer 3 (Interlayer): gelatin at 0.64, ILS-1 at 0.11 and FD-1 at 0.11.
# Layer 4 (Receiver Layer): gelatin at 2.79, coupler Y-2 at 1.08, IDIR-6 at 0.076, 0.79 blue sensitized AgIBr tabular emulsion and (when present) IEM-4 (dispersed as above) at 0.0023.
# Layer 5 (Overcoat): gelatin at 2.79 and 0.02 bis-vinylsulfonemethylether.
# [5] = Contrast (gamma) reduction by DI(A)R in single layer film element, C-41 process; settings: DIR at 0.055 mmol/m^2, relative to non-inhibitor containing check; KODAK FLEXICOLOR (C-41)
# Description: The mild inhibitor fragments that are used in this invention are defined as those that cause less than a 45% gamma reduction, or more preferably less than a 40% gamma reduction, relative to a non-inhibitor containing check when coated as the following single layer film element on a cellulose triacetate film support (coverages are in g/m^2): […]
# Overcoat Gelatin at 2.79 and 0.02 bis-vinylsulfonemethylether
# Imaging Layer Gelatin at 2.79
# Magenta Image Coupler M-1 (dispersed at 80% by
# weight in tricresyl phosphate and 20% by weight
# N,N-dibutyl-2-butoxy-5-t-octylaniline) at 0.692
# DIR being tested at 0.055 mmol/m^2 (dispersed in twice
# its weight in N,N-dibutyllauramide)
# Green sensitized AgBrI at 1.08
# Samples of each element were given a stepped exposure and processed in the KODAK FLEXICOLOR (C-41) process as described in British Journal of Photography Annual, 1988, pp 196-198. Contrast of the elements was determined using the maximum slope between any two density points.
# [6] = ML-4: IEM-4 in green, IDIR-2 in blue
SMILES,"R→G density difference (interimage) ([1]; ML-3: IEM-4 in green, IDIR-6 in blue)","B→G density difference (interimage) ([1]; ML-3: IEM-4 in green, IDIR-6 in blue, more negative = increased interimage)","B→G density difference (interimage) [1, 6]","R→G density difference (interimage) [1, 6]",Cg /Cb+g (interimage) [2],Relative Speed (green layer) [2],Cg /Cb+g (interimage) [3],Relative Speed (green layer) [3],Cb /Cb+g (interimage) ([4]; IEM-4 in blue layer at 0.0023 g/m^2),"Relative Speed ([4]; IEM-4 in blue layer at 0.0023 g/m^2, normalized to check)","interimage, in words ([1]; Table IV, IEM in green layer)",% Contrast Reduction [5] [%]
CCCCCCCOC(=O)C(CCSC)n1nn[nH]c1=S (racemic) [IEM-4],-0.206,-0.129,-0.212,-0.238,1.62,0.96,1.35,0.94,1.57,0.98,–,–
CCCCCCCCCCCCCCOc1ccccc1NC(=O)c1cc(Oc2ccc(CSc3nnnn3Cc3ccc(OC)cc3)cc2[N+](=O)[O-])c2ccccc2c1O [CDIR-1],–,–,–,–,–,–,–,–,–,–,Interimage is not increased,-55.4
CC(=O)Nc1cccc(-n2nn[nH]c2=S)c1 [CIEM-1],–,–,–,–,1.19,1.01,1.16,1.01,–,–,–,–
